Laboratory results published in patent US12077503B2, “Substituted cyclic amides and their use as herbicides” (FMC CORPORATION, priority 2015, dated 2024).

Columns and labels:
Experiment in all cases: Test C preemergence
Assay type in all cases: in vivo
Details in all cases: scale 0 to 100, 0 no effect, 100 complete control
[1] = tested on: ryegrass, Italian (Italian ryegrass, Lolium multiflorum)
Summary of the method: (§1)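 Visual rating, 0–100 scale (0 = no effect, 100 = complete control) versus controls, 13–15 d after treatment. Compounds in non-phytotoxic solvent plus surfactant; applied preemergence to seeds in loam/sand soil or postemergence to 1- to 4-leaf plants (2–18 cm) in peat/vermiculite medium; greenhouse-held.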

[2] = tested on: johnsongrass (Sorghum halepense)
Summary of the method: as §1

[3] = tested on: crabgrass, large (large crabgrass, Digitaria sanguinalis)
Summary of the method: as §1

[4] = tested on: nutsedge, yellow (yellow nutsedge, Cyperus esculentus)
Summary of the method: as §1

corn (Zea mays) = tested on: corn (Zea mays)
Summary of the method: as §1

[5] = tested on: waterhemp (common waterhemp, Amaranthus rudis)
Summary of the method: as §1

[6] = tested on: barnyardgrass (Echinochloa crus-galli)
Summary of the method: as §1

[7] = tested on: wheat (winter wheat, Triticum aestivum)
Summary of the method: as §1

soybean (Glycine max) = tested on: soybean (Glycine max)
Summary of the method: as §1

[8] = tested on: morningglory (Ipomoea coccinea)
Summary of the method: as §1

[9] = tested on: ragweed (common ragweed, Ambrosia elatior)
Summary of the method: as §1

[10] = tested on: oilseed rape (Brassica napus)
Summary of the method: as §1

[11] = tested on: blackgrass (Alopecurus myosuroides)
Summary of the method: as §1

[12] = tested on: velvetleaf (Abutilon theophrasti)
Summary of the method: as §1

[13] = tested on: foxtail, giant (giant foxtail, Setaria faberii)
Summary of the method: as §1

[14] = tested on: Galium (catchweed bedstraw, Galium aparine)
Summary of the method: as §1

[15] = tested on: lambsquarters (Chenopodium album)
Summary of the method: as §1

Which “Plant response rating, Ryegrass, Italian” value ([1]; 62 g ai/ha) does the source give for `CN1CC(c2ccc(C(F)(F)F)cc2)C(C(=S)Nc2ccccc2F)C1=O` (stereo not drawn) [Compound 450] here?
Its value is 0.

And the “Plant response rating, Ryegrass, Italian” value ([1]; 125 g ai/ha)?
Its value is 0.

And the “Plant response rating, Ryegrass, Italian” value ([1]; 250 g ai/ha)?
Its value is 30.

And the “Plant response rating, Johnsongrass” value ([2]; 31 g ai/ha)?
The value was 0.

What about the “Plant response rating, Johnsongrass” value ([2]; 62 g ai/ha) of the same compound?
Its value is 0.

And the “Plant response rating, Johnsongrass” value ([2]; 125 g ai/ha)?
The value was 20.

And the “Plant response rating, Johnsongrass” value ([2]; 250 g ai/ha)?
The value was 50.

What about the “Plant response rating, Crabgrass, Large” value ([3]; 31 g ai/ha) of the same compound?
The value was 90.

What about the “Plant response rating, Crabgrass, Large” value ([3]; 62 g ai/ha) of the same compound?
Its value is 90.

What about the “Plant response rating, Crabgrass, Large” value ([3]; 125 g ai/ha) of the same compound?
Its value is 90.

And the “Plant response rating, Crabgrass, Large” value ([3]; 250 g ai/ha)?
Its value is 95.

What about the “Plant response rating, Nutsedge, Yellow” value ([4]; 31 g ai/ha) of the same compound?
The value was 0.

And the “Plant response rating, Nutsedge, Yellow” value ([4]; 62 g ai/ha)?
The value was 0.

What about the “Plant response rating, Nutsedge, Yellow” value ([4]; 125 g ai/ha) of the same compound?
Its value is 0.

And the “Plant response rating, Nutsedge, Yellow” value ([4]; 250 g ai/ha)?
Its value is 0.

And the “Plant response rating, Corn” value (corn (Zea mays); 31 g ai/ha)?
The value was 5.

And the “Plant response rating, Corn” value (corn (Zea mays); 62 g ai/ha)?
The value was 5.

And the “Plant response rating, Corn” value (corn (Zea mays); 125 g ai/ha)?
The value was 20.

What about the “Plant response rating, Corn” value (corn (Zea mays); 250 g ai/ha) of the same compound?
The value was 65.

And the “Plant response rating, Waterhemp” value ([5]; 62 g ai/ha)?
Its value is 60.

And the “Plant response rating, Waterhemp” value ([5]; 125 g ai/ha)?
The value was 75.

And the “Plant response rating, Waterhemp” value ([5]; 250 g ai/ha)?
The value was 85.

And the “Plant response rating, Barnyardgrass” value ([6]; 31 g ai/ha)?
The value was 90.

And the “Plant response rating, Barnyardgrass” value ([6]; 62 g ai/ha)?
The value was 90.

And the “Plant response rating, Barnyardgrass” value ([6]; 125 g ai/ha)?
Its value is 90.

What about the “Plant response rating, Barnyardgrass” value ([6]; 250 g ai/ha) of the same compound?
Its value is 95.

What about the “Plant response rating, Wheat” value ([7]; 62 g ai/ha) of the same compound?
Its value is 30.

What about the “Plant response rating, Wheat” value ([7]; 125 g ai/ha) of the same compound?
The value was 40.

What about the “Plant response rating, Wheat” value ([7]; 250 g ai/ha) of the same compound?
Its value is 60.

And the “Plant response rating, Soybean” value (soybean (Glycine max); 62 g ai/ha)?
The value was 5.

And the “Plant response rating, Soybean” value (soybean (Glycine max); 125 g ai/ha)?
The value was 0.

What about the “Plant response rating, Soybean” value (soybean (Glycine max); 250 g ai/ha) of the same compound?
The value was 0.

What about the “Plant response rating, Morningglory” value ([8]; 31 g ai/ha) of the same compound?
Its value is 0.

What about the “Plant response rating, Morningglory” value ([8]; 62 g ai/ha) of the same compound?
Its value is 0.

And the “Plant response rating, Morningglory” value ([8]; 125 g ai/ha)?
The value was 20.

And the “Plant response rating, Morningglory” value ([8]; 250 g ai/ha)?
The value was 10.

And the “Plant response rating, Ragweed” value ([9]; 31 g ai/ha)?
Its value is 5.

And the “Plant response rating, Ragweed” value ([9]; 62 g ai/ha)?
The value was 10.

What about the “Plant response rating, Ragweed” value ([9]; 125 g ai/ha) of the same compound?
Its value is 20.

What about the “Plant response rating, Ragweed” value ([9]; 250 g ai/ha) of the same compound?
The value was 60.

And the “Plant response rating, Oilseed Rape” value ([10]; 31 g ai/ha)?
The value was 30.

What about the “Plant response rating, Oilseed Rape” value ([10]; 62 g ai/ha) of the same compound?
The value was 30.

And the “Plant response rating, Oilseed Rape” value ([10]; 125 g ai/ha)?
The value was 20.

And the “Plant response rating, Oilseed Rape” value ([10]; 250 g ai/ha)?
Its value is 60.

What about the “Plant response rating, Blackgrass” value ([11]; 31 g ai/ha) of the same compound?
Its value is 0.

And the “Plant response rating, Blackgrass” value ([11]; 62 g ai/ha)?
The value was 0.

What about the “Plant response rating, Blackgrass” value ([11]; 125 g ai/ha) of the same compound?
Its value is 45.

What about the “Plant response rating, Blackgrass” value ([11]; 250 g ai/ha) of the same compound?
The value was 60.

And the “Plant response rating, Velvetleaf” value ([12]; 62 g ai/ha)?
Its value is 0.

What about the “Plant response rating, Velvetleaf” value ([12]; 125 g ai/ha) of the same compound?
Its value is 10.

What about the “Plant response rating, Velvetleaf” value ([12]; 250 g ai/ha) of the same compound?
The value was 50.

What about the “Plant response rating, Foxtail, Giant” value ([13]; 31 g ai/ha) of the same compound?
Its value is 90.

What about the “Plant response rating, Foxtail, Giant” value ([13]; 62 g ai/ha) of the same compound?
The value was 90.

And the “Plant response rating, Foxtail, Giant” value ([13]; 125 g ai/ha)?
Its value is 90.

What about the “Plant response rating, Foxtail, Giant” value ([13]; 250 g ai/ha) of the same compound?
Its value is 95.

And the “Plant response rating, Galium” value ([14]; 31 g ai/ha)?
Its value is 50.

And the “Plant response rating, Galium” value ([14]; 62 g ai/ha)?
The value was 90.

What about the “Plant response rating, Galium” value ([14]; 125 g ai/ha) of the same compound?
The value was 90.

And the “Plant response rating, Galium” value ([14]; 250 g ai/ha)?
The value was 95.

And the “Plant response rating, Lambsquarters” value ([15]; 31 g ai/ha)?
The value was 55.

What about the “Plant response rating, Lambsquarters” value ([15]; 62 g ai/ha) of the same compound?
Its value is 50.

And the “Plant response rating, Lambsquarters” value ([15]; 125 g ai/ha)?
The value was 65.

And the “Plant response rating, Lambsquarters” value ([15]; 250 g ai/ha)?
The value was 65.
